This is an account of results in article PMC6838324, “A suicide inhibitor of nematode trehalose-6-phosphate phosphatases” (Scientific Reports, 2019).

SMILES strings stand for the structures. “And” between values parts separate entries of the source, which are not always exact repeats. Equal entries are not always repeated. “Also recorded” adds a separate entry of the source. Where two headings read alike, the source gives them in different places.

One experiment concerns the target Paer-ecTPP (Pseudomonas aeruginosa, UniProt B3G2E1). Briefly: Phosphatase end-point assay, extra-chromosomal TPP from P. aeruginosa. Format: biochemical. As to the method: (§1) Compounds were prepared in stocks of increasing concentration such that only 2 μL was added to reaction wells, thus keeping the DMSO concentration consistent at 4%. Enzyme in the absence of compound (with DMSO only) was run as a control and after correction for background absorbance, all test wells were scaled relative to the enzyme-only control. IC50 values were determined through fitting using either the software application SDAR[50] or DRfit[51].

Another experiment deals with Hcon-TPP1 (Haemonchus contortus, UniProt A0A7I4Z3L8). Briefly: biochemical. The note with it: for Ki: read-out: app. Ki, Hcon-TPP1, assuming a competitive inhibition model; for inhibition at 25 µM: read-out: inhibition of Hcon-TPP1 enzyme activity. As for the experimental part: as §1
Another experiment has as its target Acey-TPP (Ancylostoma ceylanicum, UniProt A0A016UGW6). Put plainly: biochemical. The note with it: for inhibition at 25 µM: read-out: inhibition of Acey-TPP enzyme activity. As for the experimental part: as §1
In a further experiment the test system is TPP from S. maltophilia. Put plainly: Phosphatase end-point assay, S. maltophilia TPP. The note with it: 25 μM compound.
Another experiment relates to H. contortus xL3 larvae. Put plainly: Motility assay of exsheathed third-stage larvae (xL3) of H. contortus. Format: cell-based, Haemonchus contortus. The note with it: 25 μM and 100 μM compound. As for the experimental part:
The effects of compound 1 were assessed in a motility assay using exsheathed third-stage larvae (xL3s) of H. contortus in 96-well microculture plates (Corning 3635; Life Sciences, USA) and the control compounds moxidectin and monepantel, following the published protocol. In brief, 1 was diluted to the final concentration of 100 µM using Luria Bertani medium (LB) supplemented with 100 IU/mL of penicillin, 100 μg mL^−1 of streptomycin and 2.5 μg mL^−1 of amphotericin (LB*), and then dispensed in triplicate into wells of a 96-well microculture plate using a multichannel pipette. Additionally, the negative controls (LB*, LB* + 0.5% solvent; six wells each), and positive controls (20 µM monepantel; Zolvix, Novartis Animal Health, Switzerland and 20 µM moxidectin; Cydectin, Virbac, France; triplicate wells) and xL3s (~300 per well) were dispensed into wells of the plate using an automated multichannel pipette. Following incubation at 38 °C and 10% CO2 for 72 h, a video recording of 5 s duration was taken of each well using a grayscale camera (Rolera Bolt, QImaging, Canada) and a motorized X-Y axis stage (BioPoint2, Ludl Electronic Products, USA). Videos were processed to calculate a motility index (MI) using an algorithm described previously.

In the next experiment the test system is T. cati L3 larvae. Briefly: L3 larvae survival assay, T. cati. Format: cell-based. As to the method: (§2) Control larvae were maintained in 0.4% DMSO in Minimal Essential Medium. The survival of L3s exposed to the compound was assessed at several time points after the start of the incubation using a light microscope (at 40× maginification).
The next experiment deals with Tcan-TPP-C215S. Put plainly: Phosphatase end-point assay, C215S mutant of T. canis TPP. The note with it: 25 μM compound. The class given is biochemical, Toxocara canis.
For another experiment, the target named is TPP from M. tuberculosis (Mycobacterium tuberculosis, UniProt P9WFZ5). Put plainly: Phosphatase end-point assay, M. tuberculosis TPP. The conditions noted are these: 25 μM compound. Format: biochemical.
For the next experiment, the target named is Tcan-TPP (Toxocara canis, UniProt A0A0B2V3X6). Put plainly: biochemical. The class given is biochemical. As for the experimental part:
as §1

In another experiment the test system is T. canis L3 larvae. Put plainly: L3 larvae survival assay, T. canis. The class given is cell-based. As for the experimental part: as §2
For a further experiment, the system named is TPP from S. pneumoniae. Put plainly: Phosphatase end-point assay, S. pneumoniae TPP. The note with it: 25 μM compound.
The test system of a further experiment is mycobacterial TPPs. Set-up: method as in PMID 30402996. The conditions noted are these: cited from earlier work.
Experiment [1] has as its target TPPs from different nematode and bacterial organisms. The conditions noted are these: read-out: inhibition constants; cited from earlier work.
The mark [2] stands for this setting: listed as N-(phenylthio)phthalimide.
[3] abbreviates: 25 μM compound, compared with uninhibited enzyme.

What is called IC50 is the point on the concentration scale where inhibition reaches its midpoint. As usually defined, the inhibition is the percentage by which the read-out fell short of the control.

Chain of Hcon-TPP1 (A0A7I4Z3L8 entry or part of it): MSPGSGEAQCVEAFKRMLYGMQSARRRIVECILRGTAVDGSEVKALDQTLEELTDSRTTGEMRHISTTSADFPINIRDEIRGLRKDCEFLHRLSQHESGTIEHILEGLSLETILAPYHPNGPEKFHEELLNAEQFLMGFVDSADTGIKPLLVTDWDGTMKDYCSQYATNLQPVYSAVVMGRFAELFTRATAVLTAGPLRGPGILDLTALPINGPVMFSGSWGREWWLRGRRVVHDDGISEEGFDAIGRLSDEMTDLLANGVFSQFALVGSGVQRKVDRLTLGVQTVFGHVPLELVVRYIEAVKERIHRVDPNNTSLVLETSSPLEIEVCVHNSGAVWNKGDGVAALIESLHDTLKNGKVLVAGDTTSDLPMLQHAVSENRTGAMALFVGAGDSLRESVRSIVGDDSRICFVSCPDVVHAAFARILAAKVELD
Chain of Acey-TPP (A0A016UGW6 entry or part of it): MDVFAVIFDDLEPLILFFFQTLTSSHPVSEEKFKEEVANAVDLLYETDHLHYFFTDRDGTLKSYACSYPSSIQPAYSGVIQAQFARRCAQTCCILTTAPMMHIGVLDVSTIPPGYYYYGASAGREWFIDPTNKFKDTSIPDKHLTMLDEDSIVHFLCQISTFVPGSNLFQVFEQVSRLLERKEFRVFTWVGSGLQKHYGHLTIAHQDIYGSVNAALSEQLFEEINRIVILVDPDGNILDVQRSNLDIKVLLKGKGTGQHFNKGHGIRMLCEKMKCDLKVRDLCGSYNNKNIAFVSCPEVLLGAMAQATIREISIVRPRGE
Chain of Paer-ecTPP (B3G2E1 entry or part of it): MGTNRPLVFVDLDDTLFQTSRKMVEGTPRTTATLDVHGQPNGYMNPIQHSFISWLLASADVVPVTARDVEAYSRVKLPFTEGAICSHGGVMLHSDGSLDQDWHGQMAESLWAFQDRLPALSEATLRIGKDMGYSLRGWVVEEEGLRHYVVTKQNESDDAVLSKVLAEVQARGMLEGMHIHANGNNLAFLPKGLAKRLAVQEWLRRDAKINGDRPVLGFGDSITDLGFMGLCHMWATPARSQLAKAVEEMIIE
Chain of Tcan-TPP (A0A0B2V3X6 entry or part of it): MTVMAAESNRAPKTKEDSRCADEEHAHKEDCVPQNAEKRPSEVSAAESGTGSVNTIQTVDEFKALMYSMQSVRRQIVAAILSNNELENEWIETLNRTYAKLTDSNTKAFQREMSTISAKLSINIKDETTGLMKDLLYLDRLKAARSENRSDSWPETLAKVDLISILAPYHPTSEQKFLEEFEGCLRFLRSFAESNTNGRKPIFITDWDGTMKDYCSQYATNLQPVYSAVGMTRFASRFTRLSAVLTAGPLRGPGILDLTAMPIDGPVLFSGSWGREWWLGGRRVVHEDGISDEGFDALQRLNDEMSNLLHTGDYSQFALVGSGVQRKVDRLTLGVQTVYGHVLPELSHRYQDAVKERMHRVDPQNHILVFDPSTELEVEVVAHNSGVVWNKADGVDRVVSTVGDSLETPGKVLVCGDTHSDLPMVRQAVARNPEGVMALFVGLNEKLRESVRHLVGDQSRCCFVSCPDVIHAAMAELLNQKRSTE
Chain of TPP from M. tuberculosis (P9WFZ5 whole entry, looked up): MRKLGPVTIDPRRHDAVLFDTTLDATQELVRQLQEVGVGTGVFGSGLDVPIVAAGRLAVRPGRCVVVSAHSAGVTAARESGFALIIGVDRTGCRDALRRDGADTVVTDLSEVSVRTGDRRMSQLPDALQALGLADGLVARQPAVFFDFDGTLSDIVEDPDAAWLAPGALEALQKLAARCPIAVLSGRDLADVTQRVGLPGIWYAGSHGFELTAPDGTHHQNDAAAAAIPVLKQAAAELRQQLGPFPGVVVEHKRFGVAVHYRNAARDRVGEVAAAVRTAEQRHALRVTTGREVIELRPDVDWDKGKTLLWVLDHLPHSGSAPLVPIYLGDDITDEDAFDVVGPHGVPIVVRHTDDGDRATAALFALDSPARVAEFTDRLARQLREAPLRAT
Protocol for TPP from S. maltophilia: (§3) Phosphatase end-point assays were carried out following a previously established protocol[35]. Briefly, the phosphatase activity of Acey-TPP and Tcan-TPP was assessed using 500 μM trehalose-6-phosphate and 10 μM enzyme to be tested. Reactions were carried out in a volume of 50 μL in assay buffer (100 mM NaCl, 20 mM TRIS, pH 7.5). Individual compounds were added to the reaction mixtures at a final concentration of 25 μM, followed by incubation for 5 min before reactions were initiated by the addition of substrate (final DMSO concentration of 4%).
(§4) Reactions were allowed to proceed for 5 min before quenching with 100 μL of BIOMOL® Green reagent (Enzo Life Sciences, New York, NY, USA). Absorbance at 620 nm was determined using a BioTek® Synergy 2 plate reader (BioTek, Winooski, VT, USA) after an incubation period of 15 min for colour development. All reactions were set up in triplicate in 96-well plates (Corning, Sigma-Aldrich, NSW, Australia) at 25 °C and control experiments in the absence of enzyme were used to correct for background absorbance.
(§5) Raw data were exported as spreadsheets from the plate reader and assembled for statistical analysis with R[48] using the software jBar[49] for calculation of means and standard errors, background correction, normalisation and significance evaluation by a two-sided t-test.
Protocol for TPP from S. pneumoniae: as §3, §4, §5

`O=C1c2ccccc2C(=O)N1Sc1ccccc1` [Compound 1, N-(phenylthio)phthalimide]: the “inhibition of phosphatase activity” value against Paer-ecTPP (25 μM compound, P. aeruginosa extra-chromosomal TPP) is listed as “susceptible to inhibition”; with TPP from S. maltophilia, “only the extra-chromosomal TPP from P. aeruginosa was susceptible to inhibition”; against TPP from M. tuberculosis, “only the extra-chromosomal TPP from P. aeruginosa was susceptible to inhibition”; in the experiment with TPP from S. pneumoniae, “only the extra-chromosomal TPP from P. aeruginosa was susceptible to inhibition”. Further, the Ki was 2.1 µM on Paer-ecTPP (Paer-ecTPP, assuming a competitive inhibition model, read-out: app. Ki); 6 µM at Hcon-TPP1; 5.8 µM on Hcon-TPP1 (setting [2]); 0.6 µM and 0.56 µM on Tcan-TPP (app. Ki, Tcan-TPP, assuming a competitive inhibition model). The IC50 on Paer-ecTPP (Paer-ecTPP, phosphatase end-point assay) is 2.1 ± 0.19 µM; against Hcon-TPP1 (Hcon-TPP1, phosphatase end-point assay), 6.6 ± 0.36 µM; on Tcan-TPP, 0.89 ± 0.037 µM. The “concentration at which enzymatic activity is almost entirely suppressed” value at Hcon-TPP1 (H. contortus TPP, dose-response) was > 25 µM. In addition, the inhibition at 25 µM at Hcon-TPP1 was 82%; at Acey-TPP it was > 50%. Besides, the “inhibitory effect on phosphatase activity under reducing conditions” value on Acey-TPP (25 μM compound, 1 mM DTT, Acey-TPP) is reported as “entirely suppressed”; at Tcan-TPP (25 μM compound, 1 mM DTT, Tcan-TPP) it was “entirely suppressed”. The “inhibition of Acey-TPP enzyme activity” value on Acey-TPP (setting [3]) is given as “complete annihilation”. For the same compound, the “motility of exsheathed H. contortus larvae (xL3)” value in the experiment on H. contortus xL3 larvae is reported as “only weakly impaired”; in the experiment on H. contortus xL3 larvae (setting [2]), “no bioactivity was observed; also recorded: no significant effects”. Moreover, the lethality in the experiment with T. cati L3 larvae (T. cati larvae, 100 μM, after 3 h) is recorded as > 80%; in the experiment with T. canis L3 larvae (T. canis larvae, 100 μM, after 24 h) it was > 80%. In addition, the LC50 was 9.3 µM in the experiment on T. cati L3 larvae (Toxocara cati, 24 h, read-out: half maximum lethal concentration (IC50 in survival assay)) and 61 µM in the experiment with T. canis L3 larvae (Toxocara canis, 24 h, read-out: half maximum lethal concentration). In the experiment on Tcan-TPP-C215S, the “effect on enzymatic activity of mutant Tcan-TPP-C215S” value is “did not affect the enzymatic activity”. The “inhibition of Tcan-TPP enzyme activity” value against Tcan-TPP (setting [3]) is reported as “complete annihilation”.

As to `O=C1NC(=O)c2ccccc21` [Compound 3, phthalimide], the inhibition at 25 µM at Hcon-TPP1, on Acey-TPP and on Tcan-TPP (read-out: inhibition of Tcan-TPP enzyme activity) was ≤ 20% each time.

In the case of `OCC1=C[C@@H](N[C@H]2C[C@H](CO)[C@@H](O[C@H]3O[C@@H](CO)[C@H](O)[C@@H](O)[C@@H]3O)[C@H](O)[C@H]2O)[C@H](O)[C@@H](O)[C@@H]1O` [validamycin A], the IC50 in the experiment with mycobacterial TPPs was 12600 to 15000 µM.

Consider `O=S(=O)(O)OC[C@H]1O[C@H](O[C@H]2O[C@H](CO)[C@@H](O)[C@H](O)[C@H]2O)[C@H](O)[C@@H](O)[C@@H]1O` [trehalose-6-sulphate], for which the Ki in experiment [1] was 50 to 300 µM.
